For 28 molecules, EC50 results are on record in US10308659B2, “Pyridine derivatives” (Hoffmann-La Roche Inc., priority 2013, dated 2019).

Molecules are shown by their SMILES.

One experiment has as its target human CB1 receptors (Homo sapiens (Human), UniProt P21554). The experiment is described as follows: cAMP assay, CHO cells expressing human CB1 receptors. To be noted: functional cAMP assay, CHO cells expressing human CB1; read-out: EC50 CB1 human. Format: cell-based. The method, boiled down:
(§1)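 Transfected CHO cells were preincubated in Krebs Ringer bicarbonate buffer with 1 mM IBMX for 30 min at 30 °C, then exposed to compound for 30 min at 30 °C. cAMP was measured by time-resolved FRET (730/645 nm) against a standard curve spanning 10 μM to 0.13 nM. EC50 values derived from concentration–response data.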
In general terms: cAMP levels reflect the balance of adenylyl cyclase and phosphodiesterase activity.

A further experiment concerns the target human CB2 receptors (Homo sapiens (Human), UniProt P34972). Kind of experiment: cAMP assay, CHO cells expressing human CB2 receptors. To be noted: functional cAMP assay, CHO cells expressing human CB2; read-out: EC50 CB2 human. Format: cell-based. An outline of the steps:
as §1

Chain of human CB2 receptors (P34972 whole entry): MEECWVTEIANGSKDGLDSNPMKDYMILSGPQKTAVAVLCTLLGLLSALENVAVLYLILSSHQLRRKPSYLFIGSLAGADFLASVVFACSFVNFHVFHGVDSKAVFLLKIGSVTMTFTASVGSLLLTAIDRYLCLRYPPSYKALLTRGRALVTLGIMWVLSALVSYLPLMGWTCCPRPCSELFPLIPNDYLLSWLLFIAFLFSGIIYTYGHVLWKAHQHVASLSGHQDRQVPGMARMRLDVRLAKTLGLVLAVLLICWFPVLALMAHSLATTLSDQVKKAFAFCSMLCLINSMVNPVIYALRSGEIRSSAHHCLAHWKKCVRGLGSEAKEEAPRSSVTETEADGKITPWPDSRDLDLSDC
Chain of human CB1 receptors (P21554 whole entry): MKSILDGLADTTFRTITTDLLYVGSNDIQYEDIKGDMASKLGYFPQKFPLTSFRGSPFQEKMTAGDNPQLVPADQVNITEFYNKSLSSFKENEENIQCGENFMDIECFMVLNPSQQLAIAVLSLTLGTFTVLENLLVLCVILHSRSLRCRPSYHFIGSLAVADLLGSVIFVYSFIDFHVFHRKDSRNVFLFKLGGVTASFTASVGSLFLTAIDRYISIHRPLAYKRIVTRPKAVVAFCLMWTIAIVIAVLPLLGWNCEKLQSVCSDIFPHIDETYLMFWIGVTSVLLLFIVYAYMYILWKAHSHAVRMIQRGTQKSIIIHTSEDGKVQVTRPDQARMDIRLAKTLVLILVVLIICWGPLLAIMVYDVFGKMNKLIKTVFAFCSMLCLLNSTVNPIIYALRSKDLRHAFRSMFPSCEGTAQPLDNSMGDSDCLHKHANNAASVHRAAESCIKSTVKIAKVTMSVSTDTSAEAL

A word on the EC50: it is the midpoint of the concentration-response curve. In the case of `CC(C)(C)c1nc(-c2cc(N3CC4(COC4)C3)c(C3CC3)cn2)no1` [Example 82, 6-[2-(5-tert-butyl-1,2,4-oxadiazol-3-yl)-5-cyclopropylpyridin-4-yl]-2-oxa-6-azaspiro[3.3]heptane], the EC50 at human CB1 receptors was greater than 10000 nM; on human CB2 receptors, 37.9 nM.
The like results for `CC1(c2nc(-c3cc(OCC(F)(F)F)c(N4CC(F)(F)C4)cn3)no2)CC1` [Example 50, 3-[5-(3,3-difluoroazetidin-1-yl)-4-(2,2,2-trifluoroethoxy)pyridin-2-yl]-5-(1-methylcyclopropyl)-1,2,4-oxadiazole] were, in that order, greater than 10000 nM and 45.8 nM.
For the molecule `OC1(c2nc(-c3cc(OCC4CC4)c(C4CC4)cn3)no2)CC1` [Example 23, 1-[3-[5-cyclopropyl-4-(cyclopropylmethoxy)pyridin-2-yl]-1,2,4-oxadiazol-5-yl]cyclopropan-1-ol], the half-maximal effective concentration (EC50) is greater than 10000 nM on human CB1 receptors and 35.2 nM at human CB2 receptors.
`C[C@H](Oc1cc(-c2noc(C3CC3)n2)ncc1C1CC1)C(F)(F)F` [Example 91, 5-cyclopropyl-3-[5-cyclopropyl-4-[(2S)-1,1,1-trifluoropropan-2-yl]oxypyridin-2-yl]-1,2,4-oxadiazole]: the EC50 at human CB1 receptors is greater than 10000 nM; at human CB2 receptors it was 641 nM.
The like results for `CC(C)(C)c1nc(-c2cc(OCc3cccnc3)c(C3CC3)cn2)no1` [Example 119, 5-tert-butyl-3-[5-cyclopropyl-4-(pyridin-3-ylmethoxy)pyridin-2-yl]-1,2,4-oxadiazole] were, in that order, greater than 10000 nM and 47 nM.
The like results for `CCC1(CC)COC(c2cc(OCC(F)(F)F)c(C3CC3)cn2)=N1` [Example 27, 2-[5-cyclopropyl-4-(2,2,2-trifluoroethoxy)pyridin-2-yl]-4,4-diethyl-5H-1,3-oxazole] were, in that order, greater than 10000 nM and 3.5 nM.
The like results for `Cc1noc(-c2cc(OCC3CC3)c(C3CC3)cn2)n1` [Example 1, 5-[5-cyclopropyl-4-(cyclopropylmethoxy)pyridin-2-yl]-3-methyl-1,2,4-oxadiazole] were, in that order, greater than 10000 nM and 25.7 nM.
Take `CCC1(CC)COC(c2cc(OCC(F)(F)F)c(N3CC(F)(F)C3)cn2)=N1` [Example 30, 2-[5-(3,3-difluoroazetidin-1-yl)-4-(2,2,2-trifluoroethoxy)pyridin-2-yl]-4,4-diethyl-5H-1,3-oxazole]: the results for the EC50 at human CB1 receptors and at human CB2 receptors were greater than 10000 nM and 2.6 nM, respectively.
The like results for `CC(C)(C)c1nc(-c2cc(OC3CCOCC3)c(C3CC3)c(Cl)n2)no1` [Example 114, 5-tert-butyl-3-[6-chloro-5-cyclopropyl-4-(oxan-4-yloxy)pyridin-2-yl]-1,2,4-oxadiazole] were, in that order, 455 nM and 3.7 nM.
As for `CC(C)(C)c1nc(-c2cc(OCC3CC3)c(N3CCC34COC4)cn2)no1` [Example 35, 1-[6-(5-tert-butyl-1,2,4-oxadiazol-3-yl)-4-(cyclopropylmethoxy)pyridin-3-yl]-6-oxa-1-azaspiro[3.3]heptane], the results for the EC50 at human CB1 receptors and on human CB2 receptors were greater than 10000 nM and 32.8 nM, respectively.
As for `CC1(c2nc(-c3cc(OCC(F)(F)F)c(N4CC(F)(F)C4)cn3)no2)COC1` [Example 47, 3-[5-(3,3-difluoroazetidin-1-yl)-4-(2,2,2-trifluoroethoxy)pyridin-2-yl]-5-(3-methyloxetan-3-yl)-1,2,4-oxadiazole], the EC50 is greater than 10000 nM at human CB1 receptors and 166 nM on human CB2 receptors.
The like results for `CC(C)c1nc(-c2cc(OCC(F)(F)F)c(N3CC(F)(F)C3)cn2)no1` [Example 45, 3-[5-(3,3-difluoroazetidin-1-yl)-4-(2,2,2-trifluoroethoxy)pyridin-2-yl]-5-propan-2-yl-1,2,4-oxadiazole] were, in that order, greater than 10000 nM and 77.8 nM.
The like results for `CC(C)(C)c1cnc(-c2cc(OCC3CC3)c(C3CC3)cn2)o1` [Example 65, 5-tert-butyl-2-[5-cyclopropyl-4-(cyclopropylmethoxy)pyridin-2-yl]-1,3-oxazole] were, in that order, 170 nM and 1.7 nM.
The like results for `FC(F)(F)COc1cc(-c2noc(C3CC3)n2)ncc1Cl` [Example 71, 3-[5-chloro-4-(2,2,2-trifluoroethoxy)pyridin-2-yl]-5-cyclopropyl-1,2,4-oxadiazole] were, in that order, greater than 10000 nM and 280 nM.
On to `CN1CCC(Oc2cc(-c3noc(C(C)(C)C)n3)ncc2C2CC2)C1` (centres unmarked) [Example 59, 5-tert-butyl-3-[5-cyclopropyl-4-(1-methylpyrrolidin-3-yl)oxypyridin-2-yl]-1,2,4-oxadiazole], for which the values for the EC50 at human CB1 receptors and at human CB2 receptors were greater than 10000 nM and 48.1 nM, respectively.
The like results for `CC(C)(C)c1nc(-c2cc(S(=O)(=O)C3CC3)c(C3CC3)cn2)no1` [Example 80, 5-tert-butyl-3-(5-cyclopropyl-4-cyclopropylsulfonylpyridin-2-yl)-1,2,4-oxadiazole] were, in that order, greater than 10000 nM and 47.5 nM.
The like results for `CC(C)(C)c1nc(-c2cc(OCC3CCCO3)c(C3CC3)cn2)no1` (centres unmarked) [Example 56, 5-tert-butyl-3-[5-cyclopropyl-4-(oxolan-2-ylmethoxy)pyridin-2-yl]-1,2,4-oxadiazole] were, in that order, greater than 10000 nM and 44.7 nM.
For the molecule `c1ccc(-c2noc(-c3cc(OCC4CC4)c(C4CC4)cn3)n2)cc1` [Example 2, 5-[5-cyclopropyl-4-(cyclopropylmethoxy)pyridin-2-yl]-3-phenyl-1,2,4-oxadiazole], the EC50 on human CB1 receptors was greater than 10000 nM; at human CB2 receptors it was 23.1 nM.
The like results for `CCN(CC)CC(C)Oc1cc(-c2noc(C(C)(C)C)n2)ncc1C1CC1` (centres unmarked) [Example 101, 2-[2-(5-tert-butyl-1,2,4-oxadiazol-3-yl)-5-cyclopropylpyridin-4-yl]oxy-N,N-diethylpropan-1-amine] were, in that order, greater than 10000 nM and 142 nM.
The like results for `CC(C)(C)c1nc(-c2cc(OCC3CC3)c(N3CC(F)(F)C3)cn2)no1` [Example 32, 5-tert-butyl-3-[4-(cyclopropylmethoxy)-5-(3,3-difluoroazetidin-1-yl)pyridin-2-yl]-1,2,4-oxadiazole] were, in that order, greater than 10000 nM and 8.6 nM.
For the molecule `CC(C)(C)c1nc(-c2cc(OCCF)c(C3CC3)cn2)no1` [Example 116, 5-tert-butyl-3-[5-cyclopropyl-4-(2-fluoroethoxy)pyridin-2-yl]-1,2,4-oxadiazole], the EC50 is greater than 10000 nM on human CB1 receptors and 15.5 nM on human CB2 receptors.
Turning to `COC1CN(c2cc(-c3noc(C(C)(C)C)n3)ncc2C2CC2)C1` [Example 81, 5-tert-butyl-3-[5-cyclopropyl-4-(3-methoxyazetidin-1-yl)pyridin-2-yl]-1,2,4-oxadiazole], the 50% effective concentration (EC50) on human CB1 receptors was greater than 10000 nM; on human CB2 receptors, 21.1 nM.
With `CCC1COC(c2cc(OCC3CC3)c(C3CC3)cn2)=N1` (centres unmarked) [Example 21, 2-[5-cyclopropyl-4-(cyclopropylmethoxy)pyridin-2-yl]-4-ethyl-4,5-dihydro-1,3-oxazole], the EC50 at human CB1 receptors was greater than 10000 nM; at human CB2 receptors it was 70 nM.
Take `CC(C)(C)c1nc(-c2cc(OCC3COC3)c(C3CC3)cn2)no1` [Example 90, 5-tert-butyl-3-[5-cyclopropyl-4-(oxetan-3-ylmethoxy)pyridin-2-yl]-1,2,4-oxadiazole]: the EC50 is greater than 10000 nM on human CB1 receptors and 11.8 nM on human CB2 receptors.
The like results for `CN1CCC[C@H]1COc1cc(-c2nc(C(C)(C)C)no2)ncc1C1CC1` [Example 122, 3-tert-butyl-5-[5-cyclopropyl-4-[[(2S)-1-methylpyrrolidin-2-yl]methoxy]pyridin-2-yl]-1,2,4-oxadiazole] were, in that order, greater than 10000 nM and 146 nM.
The like results for `CC(C)(C)c1nc(-c2cc(OCc3ccccn3)c(C3CC3)cn2)no1` [Example 117, 5-tert-butyl-3-[5-cyclopropyl-4-(pyridin-2-ylmethoxy)pyridin-2-yl]-1,2,4-oxadiazole] were, in that order, greater than 10000 nM and 53.9 nM.
The like results for `CCOCCOc1cc(-c2noc(C(C)(C)C)n2)ncc1C1CC1` [Example 83, 5-tert-butyl-3-[5-cyclopropyl-4-(2-ethoxyethoxy)pyridin-2-yl]-1,2,4-oxadiazole] were, in that order, greater than 10000 nM and 30.1 nM.
As to `CC(C)(C)c1nc(-c2cc(N3CCCC3)c(C3CC3)cn2)no1` [Example 79, 5-tert-butyl-3-(5-cyclopropyl-4-pyrrolidin-1-ylpyridin-2-yl)-1,2,4-oxadiazole], the half-maximal effective concentration (EC50) was greater than 10000 nM on human CB1 receptors and 9 nM at human CB2 receptors.
